Measured values: patent US20140303216A1, “COMPOSITIONS AND METHODS FOR INDUCING DISRUPTION OF BLOOD VASCULATURE AND FOR REDUCING ANGIOGENESIS” (BOARD OF REGENTS, THE UNIVERSITY OF TEXAS SYSTEM, priority 2011, published 2014)

Experiments:
HUVECs = assay: HUVEC wound scratch cell migration assay; assay type: cell-based, human; settings: 250 μM TBZ, 15 h
Experimental: HUVECs (1.2×10^5 cells) were seeded into 24-well plate for 24 h, and the monolayers were wounded identically. Then, cells were washed with PBS and treated with EBM-2 containing 1% DMSO or 250 μM TBZ dissolved in 1% DMSO with combination of Y27632 or GGPP (Sigma). In the case of Y27632 treatment, cells were preincubated for 2 h before wounding. Cells were photographed at time zero and after 15 h, and the ratios of cell free area [(0 h-15 h)/0 h] were calculated.

[1] = short-term or long-term studies at doses up to 15 times the usual human dose; cited from earlier work
[2] = mice; cited from earlier work
tubulin proteins = assay: Quantitative mass spectrometry of tubulins in HUVECs; assay type: cell-based, human; settings: 250 μM TBZ, 24 hours
Experimental: Following alkylation, samples were diluted in digestion buffer (50 mM Tris-HCl, pH 8.0, 2 mM CaCl2) to a final 2,2,2-trifluoroethanol concentration of 5% (v/v) and digested using proteomics grade trypsin (Sigma) at 1:50 (enzyme/protein) concentration and incubated at 37° C. for 4-5 h. Digestion was halted with the addition of 1% formic acid (v/v), and sample volume was reduced to 200 μl by SpeedVac centrifugation prior to loading on […] (Thermo). Samples were eluted (60% acetonitrile, 0.1% formic acid), reduced to 10 μl by SpeedVac centrifugation, and resuspended in sample buffer (5% acetonitrile, 0.1% formic acid). Tryptic peptides were then filtered through Microcon 10-kDa centrifugal filters (Millipore), and collected as flow-through. Peptides were chromatographically separated on a Zorbax reverse-phase C-18 column (Agilent) via a 230 min 5-38% acetonitrile gradient, then analyzed by on-line nanoelectrospray-ionization tandem mass spectrometry on an LTQ-Orbitrap (Thermo Scientific). […] Differential expression of proteins across TBZ-treated and control samples was quantified from the MS2 spectral count data using the APEX method of relative quantification^32.

[3] = system: human umbilical vein endothelial cells (HUVECs); assay: HUVEC tube formation, in vitro angiogenesis assay; assay type: cell-based
Experimental: Human umbilical vein endothelial cells (HUVECs) were purchased from Clonetics, and were used between passages 4 and 9. HUVECs were cultured on 0.1% gelatin-coated (Sigma) plates in endothelial growth medium-2 (EGM-2; Clonetics) in tissue culture flasks at 37° C. in a humidified atmosphere of 5% CO2. HUVECs (10^4 cells) were seeded in a 96-well plate coated with 50 μl of ECMatrix (Chemicon) or Matrigel (BD Bioscience) according to the manufacturer's instructions. Cells were incubated for 16 h on EGM-2 containing thiabendazole, dissolved in 1% DMSO. Negative control cells were treated with 1% DMSO in the same manner. As a positive control, siRNA versus the human HoxA9 sequence^30 was transfected into HUVECs using Lipofectamine RNAiMAX (Invitrogen) according to the manufacturer's instructions. Tube formation was observed using an inverted microscope (Nikon, eclipse TS100), and branch points were measured using ImageJ software (http://rsb.info.nih.gov/ij).

Xenopus embryos = assay: Xenopus embryo morphology and developmental defects; assay type: in vivo
From the text: Female adult Xenopus were ovulated by injections of human chorionic gonadotropin, and eggs were fertilized in vitro and dejellied in 3% cysteine (pH 7.9) and subsequently reared in 1⁄3×Marc's modified Ringer's (MMR) solution. For microinjections, embryos were placed in a solution of 2% Ficoll in 1⁄3×MMR solution, injected using forceps and an Oxford universal manipulator, reared in 2% Ficoll in 1⁄3×MMR to stage 9, then washed and reared in 1⁄3×MMR solution alone. For bilateral rab11b knock-down experiments, the posterior cardinal vein and intersomitic veins were targeted by injecting Morpholino antisense oligonucleotides (MOs) into the two ventral cells equatorially at the four-cell stage. For unilateral knockdown, only one ventral cell was injected. MOs were injected at 40 ng per blastomere. For the experiments to see the drug effects, embryos were placed in a solution of each chemical dissolved in 1% DMSO diluted in 1⁄3×MMR during indicated stages. For bead micro-surgery implantation, Affi-Gel Blue Gel beads (Bio-Rad) were soaked with 0.7 mg/ml recombinant mouse VEGF 164 aa (R&D systems) or BSA as a control. Whole-mount in situ hybridization for […] performed as described^29. Immunostaining for Xenopus was performed as previously described (Lee et al., 2008). Embryos at stage 35-36 were fixed in 1×MEMFA. 12/101 (1:500; DSHB), and primary antibodies were detected with Alexa Fluor-488 or 555 goat anti-mouse Immunoglobulin (IgG).

somitic muscle, defined with the 12/101 antibody (Xenopus embryos; 250 μM TBZ, 1% DMSO, treated at stage 31, imaged at stages 35-36, compared to 1% DMSO control): normal
overall morphology and patterning of treated Xenopus embryos (Xenopus embryos; at the stages when the vasculature was severely disrupted): grossly normal
Structure (SMILES): c1ccc2[nH]c(-c3cscn3)nc2c1 [TBZ, 4-(1H-1,3-benzodiazol-2-yl)-1,3-thiazole]
endothelial cell migration in scratch wound assay (HUVECs): significantly slowed
carcinogenic effects [1]: no carcinogenic effects
effect on fertility [2]: does not appear to affect fertility
abundance of several tubulin proteins (tubulin proteins): significant reduction
angiogenesis (tube formation) in HUVECs ([3]; 100 and 250 μM TBZ in 1% DMSO, 16 h): inhibited angiogenesis in a dose-dependent manner
concentration at which angiogenesis inhibition was observed ([3]; human cells in vitro): 100 to 250 µM
